Measured values published in US20260272936A1, “TREATMENT OF CANCER WITH A PARG INHIBITOR” (858 Therapeutics, Inc., priority 2023, published 2026).

Tests used:
[1] = system: T025OV ovarian cancer patient-derived organoid; assay: 7-day organoid colony formation, ATP content (Cell Titer Glo 3D); type: cell-based; settings: Homo sapiens, 168 h, T025OV PDO, 7 days, geometric mean
Text: The FU-97 (Cat #JCRB1074) human gastric cancer cell line and the Kuramochi (Cat #JCRB0098) and RMUG-S(Cat #IFO50320) human ovarian cancer cell lines were obtained from the National Institutes of Biomedical Innovation, Health and Nutrition's Japanese Collection of Research Bioresources (JCRB) (Ibaraki City, Osaka, Japan). The HCC1419 (Cat #CRL-2326) and HCC1428 (Cat #CRL-2327) human breast cancer cell lines and the NCI-H1650 (Cat #CRL-5883) and NCI-H1792 (Cat #CRL-5895) non-small cell lung cancer cell lines were obtained from ATCC (Manassas, Virginia, USA). The human gastric cancer cell lines GCIY (Cat #RCB0555) and SNU601 (Cat #CSC-C9686L) were obtained from the Riken Bioresource Research Center (Tsukuba, Ibaraki, Japan) and Creative Bioarray (Shirley, NY, USA), respectively. The T025OV ovarian cancer organoid model was developed from a patient-derived xenograft (PDX) model, which was developed from primary serous ovarian carcinoma cells obtained from Discovery Life Sciences (Huntsville, AL, USA, SN #350627149). […]
Compound 1 IC50 values for inhibition of organoid colony formation were determined by measuring ATP levels after 7 days of treatment utilizing Cell Titer Glo 3D reagent (Promega, Madison, WI, USA Cat #G9683). […] Luminescence values (RLU) were read-out using a Clariostar plate reader (BMG Labtech, Cary, NC). […]

OCM.109 cells = assay: 6-day proliferation of patient-derived ovarian cancer model, nuclei count; type: cell-based, human
Procedure: (§1) Ex vivo ovarian cancer models (OCMs) were established from the ascites of high-grade serous ovarian cancer patients (Coulson-Gilmer, 2021, J Exp Clin Cancer Res) and grown in vitro as 2D cell lines. OCMs were cultured in an incubator at 37° C. in 5% CO2 in OCMI media.
(§2) Compound 1 IC50 values for inhibition of cell proliferation were determined by imaging and counting the number of nuclei after compound treatment. Cells were harvested with trypsin (Thermo Fisher Scientific, Waltham, MA, USA, Cat #25200-056) and plated in Sarstedt 96-well Cell+ Tissue Culture Plates (Thermo Fisher Scientific, Waltham, MA, USA, Cat #NC9624222) at 5,000 cells/well (OCM.109) or 10,000 cells/well (OCM.246) in 100 μL of OCMI medium and incubated overnight at 37° C., 5% CO2. The following day, 1000× Compound 1 and niraparib concentration curves were prepared by serial dilution in 100% DMSO. The 1000× concentration was diluted 1:200 into growth media to generate a 5× concentration curve in 0.5% DMSO/growth medium before addition of 25 μL of the 5× compound to the wells. Control wells received 25 μL of 0.5% DMSO in media or 10 μM of Compound 1. The plates were mixed and incubated for 6 days at 37° C., 5% CO2 before fixing and staining the cells for nuclei counting as described in Example 3.
(§3) Four fields in each well were acquired using the DAPI channel at 10× magnification. Using high-content software (Cell Reporter Xpress), the nuclei were detected and counted. The percent proliferation after treatment was determined by normalizing the number of nuclei in the treated wells to the DMSO and 10 μM Compound 1 control wells. Concentration response curves and IC50 values for percent inhibition of proliferation were generated by non-linear regression analysis using a least squares fit of the log (inhibitor) vs. response-Variable slope (four parameters) curve using GraphPad Prism 10 software (GraphPad Software, Boston, MA, USA).

OCM.246 cells = assay: as above; type: cell-based, human
Procedure: as §1, §2, §3

[2] = Homo sapiens, 144 h, read-out: IC50 inhibition of proliferation

`[2H]C([2H])(c1cnn(C)c1)N1C(=O)c2cc(S(=O)(=O)NC3(C)CC3)ccc2N2C1=NC[C@H]2C` [Compound 1, (R)-1-methyl-4-((1-methyl-1H-pyrazol-4-yl)methyl-d2)-N-(1-methylcyclopropyl)-5-oxo-1,2,4,5-tetrahydroimidazo[1,2-a]quinazoline-7-sulfonamide] was tested, and the IC50 ([1]; read-out: IC50 inhibition of ATP content) was 1070 nM, the IC90 ([1]; read-out: IC90 inhibition of ATP content) was 10700 nM and the IC50 (OCM.109 cells; [2]) was 51 nM. For the same molecule, the “potency better than niraparib” value (OCM.109 cells; OCM.109) was > 80 fold, the IC50 (OCM.246 cells; [2]) was 162 nM and the “potency better than niraparib” value (OCM.246 cells; OCM.246) was > 20 fold.
